According to patent US20240051975A1 (TSINGHUA UNIVERSITY, priority 2020, published 2024):

Each compound was assayed on cell death induced by the NAMPT inhibitor FK866 (assay: Protection against cell death induced by the NAMPT inhibitor FK866 (Celltiter-Glo, cellular ATP)). Conditions: AUC of dose-response curve (0.1-10 μM) relative to AUC of NAT; 10 nM FK866, 72 hours, cell viability by ATP.
Assay type: cell-based
Procedure: In the latter cell-based assay, we determined the degree of protection of NAT and derivatives thereof against the NAMPT inhibitor FK866. […] After 72 hours, Celltiter-Glo (Promega) was used to detect cellular ATP levels to reflect cell viability and normalized to the DMSO group. A dose-response curve was drawn to evaluate the cytoprotective activity of individual compounds against FK866. Then the area under the dose-response curve (AUC, area under curve) of each compound was calculated and compared with the AUC of NAT, so that the obtained relative value quantitatively expressed the cytoprotective activity of each compound.
In the case of `CC(C)(C)c1cccc(OCC(=O)Nc2ccc(O)cc2)c1` [Compound 13, 2-(3-(tert-butyl)phenoxy)-N-(4-hydroxyphenyl)acetamide], the Relative cytoprotective activity is reported as 0.2653.
With `CC(C)(C)c1ccc(OCC(=O)Nc2ccc(O)cc2)cc1` [Compound 14, 2-(4-(tert-butyl)phenoxy)-N-(4-hydroxyphenyl)acetamide] the Relative cytoprotective activity was 0.01994.
`Cc1ccccc1OCC(=O)Nc1ccc(O)cc1` [Compound 15, N-(4-hydroxyphenyl)-2-(o-tolyloxy)acetamide] was tested, and the Relative cytoprotective activity was 0.4402.
`O=C(COc1ccccc1)Nc1ccc(O)cc1` [Compound 16, N-(4-hydroxyphenyl)-2-phenoxyacetamide] was tested, and the Relative cytoprotective activity was 0.1684.
In the case of `O=C(COc1ccccc1-c1ccccc1)Nc1ccc(O)cc1` [Compound 17, 2-([1,1′-biphenyl]-2-yloxy)-N-(4-hydroxyphenyl)acetamide], the Relative cytoprotective activity is reported as 0.4572.
`CC(C)(C)c1cccc(C#N)c1OCC(=O)Nc1ccc(O)cc1` [Compound 21, 2-(2-(tert-butyl)-6-cyanophenoxy)-N-(4-hydroxyphenyl)acetamide] showed a Relative cytoprotective activity of 2.198.
With `CCc1ccc(OCC(=O)Nc2ccc(O)cc2)c(C(C)(C)C)c1` [Compound 54, 2-(2-(tert-butyl)-4-ethylphenoxy)-N-(4-hydroxyphenyl)acetamide] the Relative cytoprotective activity was 0.8554.
In the case of `CC(C)(C)c1cc(F)ccc1OCC(=O)Nc1ccc(O)cc1` [Compound 56, 2-(2-(tert-butyl)-4-fluorophenoxy)-N-(4-hydroxyphenyl)acetamide], the Relative cytoprotective activity is reported as 0.9846.
`CC(C)(C)c1cccc(Br)c1OCC(=O)Nc1ccc(O)cc1` [Compound 59, 2-(2-bromo-6-(tert-butyl)phenoxy)-N-(4-hydroxyphenyl)acetamide] showed a Relative cytoprotective activity of 0.5085.

Same assay, conditions: against FK866
With `CC(C)(C)c1cccc(C#N)c1OCC(=O)Nc1ccc(O)cc1` [Compound 21, 2-(2-(tert-butyl)-6-cyanophenoxy)-N-(4-hydroxyphenyl)acetamide] the “cytoprotective activity (in words)” value was “significantly improved compared with NAT”.

Each compound was assayed against NAMPT (Homo sapiens, UniProt P43490) (assay: NAMPT enzyme activity assay coupled with NMNAT1 and ADH (NADH fluorescence)). Conditions: AUC of dose-response curve (0.1, 0.3, 1, 3, 10 μM) relative to AUC of NAT (NAT = 1); 1 μM NAMPT, 200 μM NAM.
Sequence of NAMPT (P43490 whole entry, species assumed): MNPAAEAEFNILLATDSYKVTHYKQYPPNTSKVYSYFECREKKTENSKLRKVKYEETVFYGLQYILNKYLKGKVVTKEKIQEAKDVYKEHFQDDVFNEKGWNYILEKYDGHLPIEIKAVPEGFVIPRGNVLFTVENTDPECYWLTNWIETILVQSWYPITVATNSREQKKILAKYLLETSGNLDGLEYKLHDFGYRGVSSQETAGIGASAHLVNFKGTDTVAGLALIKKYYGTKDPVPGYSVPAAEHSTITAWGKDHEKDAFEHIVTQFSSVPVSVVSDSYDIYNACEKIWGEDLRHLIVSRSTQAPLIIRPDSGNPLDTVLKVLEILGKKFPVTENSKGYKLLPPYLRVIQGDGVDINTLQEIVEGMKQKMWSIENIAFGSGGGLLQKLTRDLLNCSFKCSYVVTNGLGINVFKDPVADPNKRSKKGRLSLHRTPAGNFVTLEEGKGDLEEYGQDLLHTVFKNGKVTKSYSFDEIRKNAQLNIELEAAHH
Procedure: The NAMPT enzyme activity was assayed by a method coupled with the three enzymes: NAMPT, NMNAT1 and alcohol dehydrogenase (ADH). NAMPT synthesizes NMN from NAM and PRPP, NMNAT1 synthesizes NAD from NMN produced in the first step, and ADH converts NAD into detectable fluorescent NADH. […] The reaction was initiated by adding 200 μM nicotinamide (NAM) and mixing gently. The enzyme activity of NAMPT was expressed as the concentration of NADH generated per minute (the molar value was equal to NAD). The relative enzyme activity of NAMPT in each compound-treated group was normalized by the value of the DMSO-treated group, and a dose-response curve was drawn to evaluate the effect of individual compounds on NAMPT enzyme activity. The area under the dose-response curve (AUC, area under curve) was then calculated for individual compound and compared to the AUC of NAT, so that the obtained relative value quantitative Eauc represented the enzyme activation activity of each compound, and the specific calculation formula was shown in FIG. 3.
For `CC(C)(C)c1ccccc1OCC(=O)Nc1cccc(O)c1` [Compound 3, 2-(2-(tert-butyl)phenoxy)-N-(3-hydroxyphenyl)acetamide], the “Relative activation of NAMPT activity” value was −0.1895.
For `CC(C)(C)c1ccccc1OCC(=O)Nc1ccccc1O` [Compound 4, 2-(2-(tert-butyl)phenoxy)-N-(2-hydroxyphenyl)acetamide], the “Relative activation of NAMPT activity” value was −0.1833.
For `COc1ccc(NC(=O)COc2ccccc2C(C)(C)C)cc1` [Compound 5, 2-(2-(tert-butyl)phenoxy)-N-(4-methoxyphenyl)acetamide], the “Relative activation of NAMPT activity” value was −0.168.
For `CCOC(=O)c1ccc(NC(=O)COc2ccccc2C(C)(C)C)cc1` [Compound 6, ethyl 4-(2-(2-(tert-butyl)phenoxy)acetamido) benzoate], the “Relative activation of NAMPT activity” value was −0.1512.
In the case of `CN(C)c1ccc(NC(=O)COc2ccccc2C(C)(C)C)cc1` [Compound 7, 2-(2-(tert-butyl)phenoxy)-N-(4-(dimethylamino)phenyl)acetamide], the “Relative activation of NAMPT activity” value is reported as −0.1777.
For `CC(C)(C)c1ccccc1OCC(=O)Nc1ccc(Cl)cc1` [Compound 8, 2-(2-(tert-butyl)phenoxy)-N-(4-chlorophenyl)acetamide], the “Relative activation of NAMPT activity” value was −0.1983.
For `CC(C)(C)c1ccccc1OCC(=O)Nc1ccc(F)cc1` [Compound 9, 2-(2-(tert-butyl)phenoxy)-N-(4-fluorophenyl)acetamide], the “Relative activation of NAMPT activity” value was −0.2123.
In the case of `Cc1ccc(NC(=O)COc2ccccc2C(C)(C)C)cc1` [Compound 10, 2-(2-(tert-butyl)phenoxy)-N-(p-tolyl)acetamide], the “Relative activation of NAMPT activity” value is reported as −0.1608.
With `CC(C)(C)c1ccccc1OCC(=O)Nc1ccc(Oc2ccccc2)cc1` [Compound 11, 2-(2-(tert-butyl)phenoxy)-N-(4-phenoxyphenyl)acetamide] the “Relative activation of NAMPT activity” value was −0.1409.
`CC(C)(C)c1ccccc1OCC(=O)Nc1ccc(-c2ccccc2)cc1` [Compound 12] was tested, and the “Relative activation of NAMPT activity” value was −0.0947.
With `CC(C)(C)c1cccc(OCC(=O)Nc2ccc(O)cc2)c1` [Compound 13, 2-(3-(tert-butyl)phenoxy)-N-(4-hydroxyphenyl)acetamide] the “Relative activation of NAMPT activity” value was 0.2733.
With `CC(C)(C)c1ccc(OCC(=O)Nc2ccc(O)cc2)cc1` [Compound 14, 2-(4-(tert-butyl)phenoxy)-N-(4-hydroxyphenyl)acetamide] the “Relative activation of NAMPT activity” value was −0.1236.
With `O=C(COc1ccccc1)Nc1ccc(O)cc1` [Compound 16, N-(4-hydroxyphenyl)-2-phenoxyacetamide] the “Relative activation of NAMPT activity” value was 0.0971.
In the case of `O=C(COc1ccccc1-c1ccccc1)Nc1ccc(O)cc1` [Compound 17, 2-([1,1′-biphenyl]-2-yloxy)-N-(4-hydroxyphenyl)acetamide], the “Relative activation of NAMPT activity” value is reported as 0.3353.
With `CC(C)(C)c1ccccc1CNC(=O)Nc1ccc(O)cc1` [Compound 25, 1-(2-tert-butyl)benzyl-3-(4-hydroxyl)phenylurea] the “Relative activation of NAMPT activity” value was −0.2226.
In the case of `CC(C)(C)c1ccccc1OCC(=O)Nc1ccc(S(N)(=O)=O)cc1` [Compound 26, 2-(2-(tert-butyl)phenoxy)-N-(4-sulfamoylphenyl)acetamide], the “Relative activation of NAMPT activity” value is reported as −0.2346.
`CC(C)(C)c1ccccc1OCC(=O)Nc1ccc(B(O)O)cc1` [Compound 27] was tested, and the “Relative activation of NAMPT activity” value was 0.1217.
In the case of `CC(C)(C)c1ccccc1OCC(=O)Nc1ccc(CO)cc1` [Compound 28, 2-(2-(tert-butyl)phenoxy)-N-(4-(hydroxymethyl)phenyl)acetamide], the “Relative activation of NAMPT activity” value is reported as −0.2198.
For `CC(C)(C)OC(=O)Nc1ccc(NC(=O)COc2ccccc2C(C)(C)C)cc1` [Compound 29, tert-butyl (4-(2-(2-(tert-butyl)phenoxy)acetamido)phenyl)carbamate], the “Relative activation of NAMPT activity” value was −0.1978.
For `CC(C)(C)c1ccccc1OCC(=O)Nc1ccc(N)cc1` [Compound 30, N-(4-aminophenyl)-2-(2-(tert-butyl)phenoxy)acetamide], the “Relative activation of NAMPT activity” value was 0.8075.
For `CC(C)(C)c1ccccc1OCC(=O)Nc1ccc(C#N)cc1` [Compound 32, 2-(2-(tert-butyl)phenoxy)-N-(4-cyanophenyl)acetamide], the “Relative activation of NAMPT activity” value was −0.2396.
For `CC(C)(C)c1ccccc1OCC(=O)Nc1ccc(C(=O)O)cc1` [Compound 33, 4-(2-(2-(tert-butyl)phenoxy)acetamido)benzoic acid], the “Relative activation of NAMPT activity” value was −0.1619.
`CC(C)(C)c1ccccc1OCC(=O)Nc1ccc(S)cc1` [Compound 34, 2-(2-(tert-butyl)phenoxy)-N-(4-mercaptophenyl)acetamide] was tested, and the “Relative activation of NAMPT activity” value was −0.096.
With `CC(C)(C)c1ccccc1OCC(=O)Nc1ccc(O)cc1C(=O)O` [Compound 35, 2-(2-(2-(tert-butyl)phenoxy)acetamido)-5-hydroxybenzoic acid] the “Relative activation of NAMPT activity” value was −0.0889.
For `CC(C)(C)c1ccccc1OCC(=O)Nc1ccc(O)c(O)c1` [Compound 37, 2-(2-(tert-butyl)phenoxy)-N-(3,4-dihydroxyphenyl)acetamide], the “Relative activation of NAMPT activity” value was −0.1366.
`CC(C)(C)c1ccccc1OCC(=O)Nc1ccc(O)cc1C(F)(F)F` [Compound 38, 2-(2-(tert-butyl)phenoxy)-N-(4-hydroxy-2-(trifluoromethyl)phenyl)acetamide] was tested, and the “Relative activation of NAMPT activity” value was −0.12.
In the case of `CC(C)(C)c1ccccc1OCC(=O)Nc1ccc(O)c(C(F)(F)F)c1` [Compound 39, 2-(2-(tert-butyl)phenoxy)-N-(4-hydroxyl-3-(trifluoromethyl)phenyl)acetamide], the “Relative activation of NAMPT activity” value is reported as −0.1435.
`CC(C)(C)c1ccccc1OCC(=O)Nc1ccc(O)c(Cl)c1` [Compound 42, 2-(2-(tert-butyl)phenoxy)-N-(3-chloro-4-hydroxyphenyl)acetamide] was tested, and the “Relative activation of NAMPT activity” value was −0.1833.
With `Cc1cc(O)ccc1NC(=O)COc1ccccc1C(C)(C)C` [Compound 43] the “Relative activation of NAMPT activity” value was −0.168.
`COc1cc(NC(=O)COc2ccccc2C(C)(C)C)ccc1O` [Compound 44, 2-(2-(tert-butyl)phenoxy)-N-(4-hydroxyl-3-methoxyphenyl)acetamide] was tested, and the “Relative activation of NAMPT activity” value was −0.1512.
`COC(=O)c1cc(NC(=O)COc2ccccc2C(C)(C)C)ccc1O` [Compound 45, 5-(2-(2-(tert-butyl)phenoxy)acetamido)-2-hydroxybenzoic acid methyl ester] was tested, and the “Relative activation of NAMPT activity” value was −0.3625.
With `CC(=O)c1cc(NC(=O)COc2ccccc2C(C)(C)C)ccc1O` [Compound 46, N-(3-acetyl-4-hydroxyphenyl)-2-(2-(tert-butyl)phenoxy)acetamide] the “Relative activation of NAMPT activity” value was −0.1777.
With `CC(C)(C)c1ccccc1OCC(=O)Nc1ccc(O)c(CO)c1` [Compound 47, 2-(2-(tert-butyl)phenoxy)-N-(4-hydroxyl-3-(hydroxymethyl)phenyl)acetamide] the “Relative activation of NAMPT activity” value was −0.1983.
`CC(C)(C)c1ccccc1OCC(=O)Nc1ccc(O)cc1O` [Compound 48, 2-(2-(tert-butyl)phenoxy)-N-(2,4-dihydroxyphenyl)acetamide] was tested, and the “Relative activation of NAMPT activity” value was −0.1608.
In the case of `CC(C)(C)c1ccccc1OCC(=O)Nc1ccc(O)cn1` [Compound 49, 2-(2-(tert-butyl)phenoxy)-N-(5-hydroxypyridin-2-yl)acetamide], the “Relative activation of NAMPT activity” value is reported as −0.0947.
With `CC(C)(C)c1ccccc1OCC(=O)Nc1ccc(O)cc1CO` [Compound 50, 2-(2-(tert-butyl)phenoxy)-N-(4-hydroxyl-2-(hydroxymethyl)phenyl)acetamide] the “Relative activation of NAMPT activity” value was −0.1356.
`CC(C)(C)c1cc(Br)cc(Br)c1OCC(=O)Nc1ccc(O)cc1` [Compound 60, 2-(2,4-dibromo-6-(tert-butyl)phenoxy)-N-(4-hydroxyphenyl)acetamide] was tested, and the “Relative activation of NAMPT activity” value was 0.02456.
